Laboratory results from the supplement of paper PMC10627819.

Experiments:
B. subtilis 168 [1] = assay: fitness (endpoint OD595 vs no drug) (fraction); higher = more growth
Summary of the method: (§1)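 Plates with 384 wells were inoculated at OD595 0.01 using 30 µl of TSB, LB Lennox or CY, or 55 µl for S. pneumoniae. Incubation was at 37 °C, with OD595 measured every 30 min for 14 h. Fitness is the stationary-phase transition optical density over the robust mean of no-drug control wells, after first-reading background subtraction; it is capped at 1.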

S. aureus Newman [2] = assay: as above
Summary of the method: as §1

S. pneumoniae D39V [3] = assay: as above
Summary of the method: as §1

B. subtilis 168 [4] = assay: Bliss interaction score (quartile over a dose matrix) (fitness difference); higher = more antagonism (negative = synergy)
Summary of the method: (§2)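 At entry into stationary phase, OD595 was recorded and divided by the robust mean of the no-drug wells on that plate, with any value above 1 set to 1. This gives the fitness measure used throughout. Single-drug fitness was inferred from combination data, and the Bliss score, observed minus product-expected fitness, is shown as quartiles across technical, biological and donor/recipient replicates.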

S. aureus DSM 20231 = assay: as above
Summary of the method: as §2

S. aureus Newman [5] = assay: as above
Summary of the method: as §2

S. pneumoniae D39V [6] = assay: as above
Summary of the method: as §2
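Throughout, for Bliss interaction score (quartile over a dose matrix): first quartile when negative (synergy) and third quartile when positive (antagonism).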

O=C(O)c1cn(C2CC2)c2cc(N3CCNCC3)c(F)cc2c1=O [Ciprofloxacin] + CN(N=O)C(=O)N[C@@H](C=O)[C@@H](O)[C@H](O)[C@H](O)CO [Streptozotocin]
Settings | fitness
B. subtilis 168 [1], first compound 0.0098 µg/mL, partner 0.15 µg/mL | 0.886
B. subtilis 168 [1], first compound 0.0098 µg/mL, partner 0.3 µg/mL | 0.954
B. subtilis 168 [1], first compound 0.0098 µg/mL, partner 0.6 µg/mL | 0.887
B. subtilis 168 [1], first compound 0.0195 µg/mL, partner 0.15 µg/mL | 0.674
B. subtilis 168 [1], first compound 0.0195 µg/mL, partner 0.3 µg/mL | 0.678
B. subtilis 168 [1], first compound 0.0195 µg/mL, partner 0.6 µg/mL | 0.666
B. subtilis 168 [1], first compound 0.039 µg/mL, partner 0.15 µg/mL | 0.117
B. subtilis 168 [1], first compound 0.039 µg/mL, partner 0.3 µg/mL | 0.119
B. subtilis 168 [1], first compound 0.039 µg/mL, partner 0.6 µg/mL | 0.13
S. aureus Newman [2], first compound 0.0375 µg/mL, partner 0.15 µg/mL | 0.602
S. aureus Newman [2], first compound 0.0375 µg/mL, partner 0.3 µg/mL | 0.565
S. aureus Newman [2], first compound 0.0375 µg/mL, partner 0.6 µg/mL | 0.398
S. aureus Newman [2], first compound 0.075 µg/mL, partner 0.15 µg/mL | 0.448
S. aureus Newman [2], first compound 0.075 µg/mL, partner 0.6 µg/mL | 0.194
S. aureus Newman [2], first compound 0.15 µg/mL, partner 0.15 µg/mL | 0.0223
S. aureus Newman [2], first compound 0.15 µg/mL, partner 0.3 µg/mL | 0.0444
S. aureus Newman [2], first compound 0.15 µg/mL, partner 0.6 µg/mL | 0.0059
S. pneumoniae D39V [3], first compound 0.125 µg/mL, partner 1.2 µg/mL | 0.929
S. pneumoniae D39V [3], first compound 0.125 µg/mL, partner 2.4 µg/mL | 0.926
S. pneumoniae D39V [3], first compound 0.125 µg/mL, partner 4.8 µg/mL | 0.95
S. pneumoniae D39V [3], first compound 0.25 µg/mL, partner 1.2 µg/mL | 0.839
S. pneumoniae D39V [3], first compound 0.25 µg/mL, partner 4.8 µg/mL | 0.797
S. pneumoniae D39V [3], first compound 0.5 µg/mL, partner 4.8 µg/mL | 0.567

Settings | Bliss interaction score
B. subtilis 168 [4] | -0.082
S. aureus DSM 20231 | -0.0435
S. aureus Newman [5] | -0.112
S. pneumoniae D39V [6] | -0.0511

O=C(O)c1cn(C2CC2)c2cc(N3CCNCC3)c(F)cc2c1=O [Ciprofloxacin] + CN[C@@H]1[C@H](O)[C@H](NC)[C@H]2O[C@@]3(O)C(=O)C[C@@H](C)O[C@H]3O[C@@H]2[C@H]1O [Spectinomycin]
fitness
Settings | partner 2 µg/mL | partner 4 µg/mL | partner 8 µg/mL | partner 16 µg/mL
B. subtilis 168 [1], first compound 0.0098 µg/mL | 0.949 | 0.897 | 0.94 | –
B. subtilis 168 [1], first compound 0.0195 µg/mL | 0.694 | 0.741 | 0.789 | –
B. subtilis 168 [1], first compound 0.039 µg/mL | – | 0.257 | – | –
S. aureus Newman [2], first compound 0.0375 µg/mL | – | 0.643 | 0.666 | 0.622
S. aureus Newman [2], first compound 0.075 µg/mL | – | 0.627 | – | 0.615
S. aureus Newman [2], first compound 0.15 µg/mL | – | – | 0.0938 | 0.0557
S. pneumoniae D39V [3], first compound 0.125 µg/mL | – | 0.919 | 0.913 | 0.706
S. pneumoniae D39V [3], first compound 0.25 µg/mL | – | 0.797 | 0.795 | –
S. pneumoniae D39V [3], first compound 0.5 µg/mL | – | – | – | 0.446

fitness, one replicate
Settings | first compound 0.078 µg/mL | first compound 0.156 µg/mL | first compound 0.25 µg/mL | first compound 0.312 µg/mL
S. aureus Newman [2], partner 16 µg/mL | 0.203 | 0.0195 | – | 0.0278
S. aureus Newman [2], partner 32 µg/mL | 0.116 | 0.0216 | – | 0.0094
S. aureus Newman [2], partner 64 µg/mL | 0.0489 | 0.0519 | – | 0.102
S. pneumoniae D39V [3], partner 16 µg/mL | – | – | 0.48 | –

Settings | Bliss interaction score
B. subtilis 168 [4] | 0.0965
S. aureus DSM 20231 | 0.0785
S. aureus Newman [5] | -0.0629
S. pneumoniae D39V [6] | -0.0847

O=C(O)c1cn(C2CC2)c2cc(N3CCNCC3)c(F)cc2c1=O [Ciprofloxacin] + CN[C@@H]1[C@H](O[C@H]2[C@H](O[C@H]3[C@H](O)[C@@H](O)[C@H](N=C(N)N)[C@@H](O)[C@@H]3N=C(N)N)O[C@@H](C)[C@]2(O)C=O)O[C@@H](CO)[C@H](O)[C@H]1O [Streptomycin]
fitness
Settings | partner 1 µg/mL | partner 2 µg/mL | partner 4 µg/mL | partner 8 µg/mL
B. subtilis 168 [1], first compound 0.0098 µg/mL | – | 0.861 | – | –
B. subtilis 168 [1], first compound 0.0195 µg/mL | – | 0.601 | – | –
B. subtilis 168 [1], first compound 0.039 µg/mL | – | 0.0408 | 0.0521 | 0.0363
S. aureus Newman [2], first compound 0.0375 µg/mL | 0.737 | 0.7 | – | –
S. aureus Newman [2], first compound 0.075 µg/mL | 0.68 | 0.65 | – | –
S. aureus Newman [2], first compound 0.15 µg/mL | – | 0.0504 | 0.066 | –
S. pneumoniae D39V [3], first compound 0.125 µg/mL | – | 0.916 | 0.936 | 0.909
S. pneumoniae D39V [3], first compound 0.25 µg/mL | – | 0.872 | 0.774 | 0.765

S. pneumoniae D39V [3], partner 16 µg/mL, one replicate
Settings | fitness
first compound 0.125 µg/mL | 0.739
first compound 0.25 µg/mL | 0.668
first compound 0.5 µg/mL | 0.379

Settings | Bliss interaction score
B. subtilis 168 [4] | -0.109
S. aureus DSM 20231 | -0.0869
S. aureus Newman [5] | 0.0876
S. pneumoniae D39V [6] | -0.0549

O=C(O)c1cn(C2CC2)c2cc(N3CCNCC3)c(F)cc2c1=O [Ciprofloxacin] + COc1c(N2C[C@@H]3CCCN[C@@H]3C2)c(F)cc2c(=O)c(C(=O)O)cn(C3CC3)c12 [Moxifloxacin]
Settings | fitness
B. subtilis 168 [1], first compound 0.0098 µg/mL, partner 0.0625 µg/mL | 0.051
B. subtilis 168 [1], first compound 0.0098 µg/mL, partner 0.125 µg/mL | 0.055
B. subtilis 168 [1], first compound 0.0098 µg/mL, partner 2 µg/mL | 0.0402
B. subtilis 168 [1], first compound 0.0098 µg/mL, partner 4 µg/mL | 0.0314
B. subtilis 168 [1], first compound 0.0098 µg/mL, partner 8 µg/mL | 0.0305
B. subtilis 168 [1], first compound 0.0195 µg/mL, partner 0.0312 µg/mL | 0.0426
B. subtilis 168 [1], first compound 0.0195 µg/mL, partner 0.0625 µg/mL | 0.0567
B. subtilis 168 [1], first compound 0.0195 µg/mL, partner 0.125 µg/mL | 0.0402
B. subtilis 168 [1], first compound 0.0195 µg/mL, partner 2 µg/mL | 0.0358
B. subtilis 168 [1], first compound 0.0195 µg/mL, partner 4 µg/mL | 0.027
B. subtilis 168 [1], first compound 0.0195 µg/mL, partner 8 µg/mL | 0.0243
B. subtilis 168 [1], first compound 0.039 µg/mL, partner 0.0312 µg/mL | 0.0379
B. subtilis 168 [1], first compound 0.039 µg/mL, partner 0.0625 µg/mL | 0.0522
B. subtilis 168 [1], first compound 0.039 µg/mL, partner 0.125 µg/mL | 0.0269
B. subtilis 168 [1], first compound 0.039 µg/mL, partner 2 µg/mL | 0.038
B. subtilis 168 [1], first compound 0.039 µg/mL, partner 4 µg/mL | 0.0353
B. subtilis 168 [1], first compound 0.039 µg/mL, partner 8 µg/mL | 0.0328
S. aureus Newman [2], first compound 0.0375 µg/mL, partner 0.0075 µg/mL | 0.579
S. aureus Newman [2], first compound 0.0375 µg/mL, partner 0.015 µg/mL | 0.414
S. aureus Newman [2], first compound 0.0375 µg/mL, partner 0.03 µg/mL | 0.0123
S. aureus Newman [2], first compound 0.075 µg/mL, partner 0.0075 µg/mL | 0.322
S. aureus Newman [2], first compound 0.075 µg/mL, partner 0.015 µg/mL | 0.0421
S. aureus Newman [2], first compound 0.075 µg/mL, partner 0.03 µg/mL | 0.0176
S. aureus Newman [2], first compound 0.15 µg/mL, partner 0.0075 µg/mL | 0.0344
S. aureus Newman [2], first compound 0.15 µg/mL, partner 0.015 µg/mL | 0.03
S. aureus Newman [2], first compound 0.15 µg/mL, partner 0.03 µg/mL | 0.0119
S. pneumoniae D39V [3], first compound 0.125 µg/mL, partner 0.005 µg/mL | 0.944
S. pneumoniae D39V [3], first compound 0.125 µg/mL, partner 0.01 µg/mL | 0.944
S. pneumoniae D39V [3], first compound 0.125 µg/mL, partner 0.02 µg/mL | 0.882
S. pneumoniae D39V [3], first compound 0.125 µg/mL, partner 0.0312 µg/mL | 0.0716
S. pneumoniae D39V [3], first compound 0.125 µg/mL, partner 0.0625 µg/mL | 0.0294
S. pneumoniae D39V [3], first compound 0.125 µg/mL, partner 0.125 µg/mL | 0.0127
S. pneumoniae D39V [3], first compound 0.25 µg/mL, partner 0.005 µg/mL | 0.887
S. pneumoniae D39V [3], first compound 0.25 µg/mL, partner 0.01 µg/mL | 0.892
S. pneumoniae D39V [3], first compound 0.25 µg/mL, partner 0.02 µg/mL | 0.812
S. pneumoniae D39V [3], first compound 0.5 µg/mL, partner 0.005 µg/mL | 0.686
S. pneumoniae D39V [3], first compound 0.5 µg/mL, partner 0.01 µg/mL | 0.692
S. pneumoniae D39V [3], first compound 0.5 µg/mL, partner 0.02 µg/mL | 0.628
S. pneumoniae D39V [3], first compound 0.5 µg/mL, partner 0.0312 µg/mL | 0.0441
S. pneumoniae D39V [3], first compound 0.5 µg/mL, partner 0.0625 µg/mL | 0.0537
S. pneumoniae D39V [3], first compound 0.5 µg/mL, partner 0.125 µg/mL | 0.0249

S. pneumoniae D39V [3], first compound 0.25 µg/mL, one replicate
Settings | fitness
partner 0.0312 µg/mL | 0.0113
partner 0.0625 µg/mL | 0.0007
partner 0.125 µg/mL | 0

Settings | Bliss interaction score
B. subtilis 168 [4] | 0.026
S. aureus DSM 20231 | -0.117
S. aureus Newman [5] | -0.2
S. pneumoniae D39V [6] | -0.0855
